Reference: US7632933B2, “Corticotropin releasing factor 2 receptor agonists” (priority 2002, dated 2009)
Peptide text beside a SMILES is read from it.

Key:
CRF1R = target: T1, CRF1R (Homo sapiens, UniProt P34998); experiment: CRF1R agonist activity (EC50 and Emax), called comparative CRF binding; format: cell-based; details: CRF1R; read-out: CRF1R EC50
T1 sequence (P34998 24-415): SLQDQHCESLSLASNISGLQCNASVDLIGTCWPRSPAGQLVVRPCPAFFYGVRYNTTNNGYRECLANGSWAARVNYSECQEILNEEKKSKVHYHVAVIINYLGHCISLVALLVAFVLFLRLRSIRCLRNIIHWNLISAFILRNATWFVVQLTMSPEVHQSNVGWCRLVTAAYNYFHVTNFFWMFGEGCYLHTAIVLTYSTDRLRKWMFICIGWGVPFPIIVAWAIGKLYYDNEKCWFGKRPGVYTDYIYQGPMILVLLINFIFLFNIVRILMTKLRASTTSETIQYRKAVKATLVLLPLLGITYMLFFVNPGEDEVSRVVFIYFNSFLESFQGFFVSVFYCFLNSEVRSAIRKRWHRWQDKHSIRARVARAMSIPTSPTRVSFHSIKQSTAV
How it was run: (§1)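 Cells expressing only CRF1R or CRF2R (or recombinant receptor) were contacted with peptide or vehicle control. Receptor activation was measured as cAMP induction in cell lysates or via a cAMP-responsive-element reporter gene.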

CRF2R = target: T2, CRF2R (Homo sapiens, UniProt Q13324); experiment: CRF2R agonist activity (EC50 and Emax), called comparative CRF binding; format: cell-based; details: CRF2R; read-out: CRF2R EC50
T2 sequence (Q13324 1-411): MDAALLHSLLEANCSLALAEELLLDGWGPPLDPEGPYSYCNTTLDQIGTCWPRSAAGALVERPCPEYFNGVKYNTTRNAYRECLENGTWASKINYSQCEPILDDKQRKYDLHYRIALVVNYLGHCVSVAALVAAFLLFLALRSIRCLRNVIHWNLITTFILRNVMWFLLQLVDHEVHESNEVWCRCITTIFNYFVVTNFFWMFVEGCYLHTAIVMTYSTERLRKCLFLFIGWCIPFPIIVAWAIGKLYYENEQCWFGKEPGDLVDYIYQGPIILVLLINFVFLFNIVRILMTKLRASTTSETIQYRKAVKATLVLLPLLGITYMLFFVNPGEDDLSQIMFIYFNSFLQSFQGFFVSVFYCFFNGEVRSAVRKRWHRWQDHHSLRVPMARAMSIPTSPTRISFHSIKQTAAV
How it was run: as §1

| Structure (SMILES) | EC50 (CRF1R) [nM] | EC50 (CRF2R) [nM] |
| --- | --- | --- |
| CC[C@H](C)[C@H](N)C(=O)N[C@H](C(=O)N[C@@H](CC(C)C)C(=O)N[C@@H](CO)C(=O)N[C@@H](CC(C)C)C(=O)N[C@@H](CC(=O)O)C(=O)N[C@H](C(=O)N1CCC[C@H]1C(=O)N[C@H](C(=O)NCC(=O)N[C@@H](CC(C)C)C(=O)N[C@@H](CC(C)C)C(=O)N[C@@H](CCC(N)=O)C(=O)N[C@@H](CCC(=O)O)C(=O)N[C@H](C(=O)N[C@@H](CC(C)C)C(=O)N[C@@H](CCC(=O)O)C(=O)N[C@@H](CCSC)C(=O)N[C@@H](C)C(=O)N[C@@H](CCCNC(=N)N)C(=O)N[C@@H](C)C(=O)N[C@@H](CCC(=O)O)C(=O)N[C@@H](CCC(N)=O)C(=O)N[C@@H](CC(C)C)C(=O)N[C@@H](C)C(=O)N[C@@H](CCC(N)=O)C(=O)N[C@@H](CCC(N)=O)C(=O)N[C@@H](C)C(=O)N[C@@H](Cc1c[nH]cn1)C(=O)N[C@@H](CO)C(=O)N[C@@H](CC(N)=O)C(=O)N[C@@H](CCCNC(=N)N)C(=O)N[C@@H](CCCCN)C(=O)N[C@@H](CC(C)C)C(=O)N[C@@H](CCSC)C(=O)N[C@@H](CCC(=O)O)C(=O)N[C@H](C(=O)N[C@H](C(N)=O)[C@@H](C)CC)[C@@H](C)CC)C(C)C)[C@@H](C)CC)C(C)C)C(C)C [compound 165] (H-IVLSLDVPIGLLQEVLEMARAEQLAQQAHSNRKLMEII-NH2) | > 100 | > 100 |
| CC[C@H](C)[C@H](NC(=O)[C@H](CC(=O)O)NC(=O)[C@H](CC(C)C)NC(=O)[C@H](CC(C)C)NC(=O)[C@H](CCCCN)NC(=O)[C@H](CCCNC(=N)N)NC(=O)[C@H](CC(N)=O)NC(=O)[C@H](CO)NC(=O)[C@H](Cc1c[nH]cn1)NC(=O)[C@H](C)NC(=O)[C@H](CCC(N)=O)NC(=O)[C@H](CCC(N)=O)NC(=O)[C@H](C)NC(=O)[C@H](CC(C)C)NC(=O)[C@H](CCC(N)=O)NC(=O)[C@H](CC(=O)O)NC(=O)[C@H](C)NC(=O)[C@H](CCCCN)NC(=O)[C@@H](NC(=O)[C@H](CCSC)NC(=O)[C@H](CCC(=O)O)NC(=O)[C@H](CC(C)C)NC(=O)[C@@H](NC(=O)[C@H](CCC(=O)O)NC(=O)[C@H](CCCNC(=N)N)NC(=O)[C@H](CC(C)C)NC(=O)[C@H](CC(C)C)NC(=O)[C@H](Cc1c[nH]cn1)NC(=O)[C@H](Cc1ccccc1)NC(=O)[C@@H]1CCCN1C(=O)[C@H](CC(C)C)NC(=O)[C@H](CC(=O)O)NC(=O)[C@H](CC(C)C)NC(=O)[C@H](CO)NC(=O)[C@@H](NC(=O)[C@@H]1CCCN1C(=O)[C@@H]1CCCN1C(=O)[C@H](CCC(=O)O)NC(=O)[C@H](CCC(N)=O)NC(=O)[C@@H](N)CO)[C@@H](C)CC)C(C)C)[C@@H](C)O)C(=O)N[C@@H](C)C(N)=O [compound 104] | ≥ 100 | ≥ 100 |
